In one assay the target is T1, GST-ALK5 (Homo sapiens, UniProt P36897).
T1 sequence (P36897 34-503): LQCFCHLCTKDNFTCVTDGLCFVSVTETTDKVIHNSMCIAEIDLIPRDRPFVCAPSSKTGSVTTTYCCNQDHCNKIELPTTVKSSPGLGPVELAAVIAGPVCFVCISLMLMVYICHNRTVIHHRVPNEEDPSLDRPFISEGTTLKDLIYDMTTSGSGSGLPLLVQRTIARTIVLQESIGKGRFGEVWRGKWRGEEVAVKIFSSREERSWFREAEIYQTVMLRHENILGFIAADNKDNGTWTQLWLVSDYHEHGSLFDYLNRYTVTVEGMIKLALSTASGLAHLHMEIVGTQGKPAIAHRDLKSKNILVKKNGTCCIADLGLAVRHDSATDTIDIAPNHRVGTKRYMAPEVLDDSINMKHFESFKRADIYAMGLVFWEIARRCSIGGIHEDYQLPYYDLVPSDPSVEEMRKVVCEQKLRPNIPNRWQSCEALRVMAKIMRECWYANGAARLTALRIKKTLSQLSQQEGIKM
Nature of the assay: In-vitro (enzyme) kinase assay, 384-well flashplate (Example 36). As to conditions: GST-ALK5, GST-SMAD2 substrate, 3 mM ATP, 30° C., 45 min; read-out: TβR activity (Example 36). Format: biochemical. In a few lines:
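Radiometric flashplate assay: 31.2 nM GST-ALK5 phosphorylating 439 nM GST-SMAD2 with 3 mM ATP plus ³³P-ATP, in HEPES/MgCl2/MnCl2/DTT/BSA buffer pH 7.4, 45 min at 30 °C, 5-10 compound concentrations. EDTA stop, filtration and washing, then radioactivity counted; IC50 derived from the curve.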

For assay [1], the system named is TGF-beta-induced phosphorylation of Smad2 and Smad3 in Mv1-Lu cells. Nature of the assay: Inhibition of Smad2/3 phosphorylation in Mv1Lu cells (Example 35A). Format: cell-based, mink Mustela vison. As to conditions: Neogale vison, Mv1-Lu cells, TGF-beta 1 5 ng/ml, phospho-Smad2/3 ELISA, read-out: TβR activity (Example 35A). In a few lines: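 Serum-starved (16-20 h) Mv1-Lu mink lung epithelial cells were pre-incubated 1.5 h with compound dilutions (0.2% DMSO), then stimulated 1 h with 5 ng/ml TGF-beta 1. Phospho-Smad2 (Ser465/467)/Smad3 (Ser423/425) in lysates was measured by ELISA. IC50 came from dose-response fits between stimulated and unstimulated controls.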
In general terms: ELISA stands for enzyme-linked immunosorbent assay.

A value given as a limit tells only on which side of the number the result lay.

Experimental findings from patent US8912216B2, “Hetaryl-[1,8]naphthyridine derivatives” (Merck Patent GmbH, priority 2010, dated 2014) are described below.

In the case of `CCOC(=O)c1cccc(-c2cncc(-c3cc(-c4cc(Cl)ccc4F)nc4ncccc34)c2)n1` [compound 124, 5′-[2-(5-Chloro-2-fluoro-phenyl)-[1,8]naphthyridin-4-yl]-[2,3′]bipyridinyl-6-carboxylic acid ethyl ester], the IC50 lay within 1000 to 10000 nM at GST-ALK5 and 100 to 1000 nM in assay [1].
Take `Fc1ccccc1-c1cc(-c2cncc(-c3cnn(CCN4CCCC4)c3)c2)c2cccnc2n1` [compound 24, 2-(2-Fluoro-phenyl)-4-{5-[1-(2-pyrrolidin-1-yl-ethyl)-1H-pyrazol-4-yl]-pyridin-3-yl}-[1,8]naphthyridine]: the IC50 (on GST-ALK5; in assay [1]) was below 100 nM in each case.
Regarding `Fc1ccc(Cl)cc1-c1cc(-c2cncc(-c3ccc4c(c3)CNC4)c2)c2cccnc2n1` [compound 175, 2-(5-Chloro-2-fluoro-phenyl)-4-[5-(2,3-dihydro-1H-isoindol-5-yl)-pyridin-3-yl]-[1,8]naphthyridine], the IC50 (at GST-ALK5; in assay [1]) was below 100 nM throughout.
On to `Fc1ccc(Cl)cc1-c1cc(-c2cncc(-c3ccc(Cl)nn3)c2)c2cccnc2n1` [compound 107, 2-(5-Chloro-2-fluoro-phenyl)-4-[5-(6-chloro-pyridazin-3-yl)-pyridin-3-yl]-[1,8]naphthyridine], for which the values for the IC50 (at GST-ALK5; in assay [1]) were 100 to 1000 nM and 1000 to 10000 nM, respectively.
On to `Fc1ccc(Cl)cc1-c1cc(-c2cncc(-c3cccc(C4CCNCC4)c3)c2)c2cccnc2n1` [compound 159, 2-(5-Chloro-2-fluoro-phenyl)-4-[5-(3-piperidin-4-yl-phenyl)-pyridin-3-yl]-[1,8]naphthyridine], for which the IC50 at GST-ALK5 was below 100 nM; in assay [1], 100 to 1000 nM.
For `CN1CCN(CCCn2cc(-c3cncc(-c4cc(-c5ccccc5F)nc5ncccc45)c3)cn2)CC1` [compound 86, 2-(2-Fluoro-phenyl)-4-(5-{1-[3-(4-methyl-piperazin-1-yl)-propyl]-1H-pyrazol-4-yl}-pyridin-3-yl)-[1,8]naphthyridine], in that order: below 100 nM and 100 to 1000 nM.
Take `Fc1ccc(Cl)cc1-c1cc(-c2cncc(-c3cnn(CCN4CCOCC4)c3)c2)c2cccnc2n1` [compound 96, 2-(5-Chloro-2-fluoro-phenyl)-4-{5-[1-(2-morpholin-4-yl-ethyl)-1H-pyrazol-4-yl]-pyridin-3-yl}-[1,8]naphthyridine]: the IC50 (on GST-ALK5; in assay [1]) was below 100 nM throughout.
As to `Cc1cccc(-c2cc(-c3cncc(-c4cnn(C)c4)c3)c3cccnc3n2)n1` [compound 10, 4-[5-(1-Methyl-1H-pyrazol-4-yl)-pyridin-3-yl]-2-(6-methyl-pyridin-2-yl)-[1,8]naphthyridine], the IC50 fell in the range of 100 to 1000 nM at GST-ALK5 and 1000 to 10000 nM in assay [1].
For `Fc1ccc(Cl)cc1-c1cc(-c2cncc(-c3ccc4c(c3)CCNC4)c2)c2cccnc2n1` [compound 155, 2-(5-Chloro-2-fluoro-phenyl)-4-[5-(1,2,3,4-tetrahydro-isoquinolin-6-yl)-pyridin-3-yl]-[1,8]naphthyridine], the IC50 (at GST-ALK5; in assay [1]) was below 100 nM in each case.
Take `Fc1ccc(Cl)cc1-c1cc(-c2cnccc2-c2ccccc2)c2cccnc2n1` [compound 98, 2-(5-Chloro-2-fluoro-phenyl)-4-(4-phenyl-pyridin-3-yl)-[1,8]naphthyridine]: the IC50 (at GST-ALK5; in assay [1]) was 1000 to 10000 nM each time.
Turning to `Fc1ccc(Cl)cc1-c1cc(-c2cncc(-c3ccc(N4CCNCC4)nc3)c2)c2cccnc2n1` [compound 95, 2-(5-Chloro-2-fluoro-phenyl)-4-(6′-piperazin-1-yl-[3,3′]bipyridinyl-5-yl)-[1,8]naphthyridine], the IC50 at GST-ALK5 was below 100 nM; in assay [1], 100 to 1000 nM.
For `OCC(O)Cn1cc(-c2cncc(-c3cc(-c4cc(F)ccc4F)nc4ncccc34)c2)cn1` (stereo not shown) [compound 88, 3-(4-{5-[2-(2,5-Difluoro-phenyl)-[1,8]naphthyridin-4-yl]-pyridin-3-yl}-pyrazol-1-yl)-propane-1,2-diol], in that order: below 100 nM and 1000 to 10000 nM.
Turning to `CN1CCC(n2cc(-c3cncc(-c4cc(-c5cc(Cl)ccc5F)nc5ncccc45)c3)nn2)CC1` [compound 57, 2-(5-Chloro-2-fluoro-phenyl)-4-{5-[1-(1-methyl-piperidin-4-yl)-1H-[1,2,3]triazol-4-yl]-pyridin-3-yl}-[1,8]naphthyridine], the IC50 (at GST-ALK5; in assay [1]) was below 100 nM in each case.
For `CN1CCC(n2cc(-c3cncc(-c4cc(-c5ccccc5F)nc5ncccc45)c3)cn2)CC1` [compound 30, 2-(2-fluoro-phenyl)-4-{5-[1-(1-methyl-piperidin-4-yl)-1H-pyrazol-4-yl]-pyridin-3-yl}-[1,8]naphthyridine], the IC50 (on GST-ALK5; in assay [1]) was below 100 nM throughout.
Consider `O=C1CCc2cc(-c3cncc(-c4cc(-c5cc(Cl)ccc5F)nc5ncccc45)c3)cnc2N1` [compound 165, 6-{5-[2-(5-Chloro-2-fluoro-phenyl)-[1,8]naphthyridin-4-yl]-pyridin-3-yl}-3,4-dihydro-1H-[1,8]naphthyridin-2-one], for which the IC50 (on GST-ALK5; in assay [1]) was below 100 nM each time.
Regarding `Cn1cc(-c2cncc(-c3cc(-c4cc(Cl)ccc4F)nc4ncccc34)c2)cn1` [compound 7, 2-(5-chloro-2-fluoro-phenyl)-4-[5-(1-methyl-1H-pyrazol-4-yl)-pyridin-3-yl]-[1,8]naphthyridine], the IC50 on GST-ALK5 was below 100 nM; in assay [1], 100 to 1000 nM.
In the same order, the values of `N#Cc1cccc(-c2cncc(-c3cc(-c4cc(Cl)ccc4F)nc4ncccc34)c2)n1` [compound 160, 5′-[2-(5-Chloro-2-fluoro-phenyl)-[1,8]naphthyridin-4-yl]-[2,3′]bipyridinyl-6-carbonitrile] are above 10000 nM and above 10000 nM.
For `Fc1ccc(F)c(-c2cc(-c3cncc(-c4cccc(OCC5CCNCC5)c4)c3)c3cccnc3n2)c1` [compound 147, 2-(2,5-Difluoro-phenyl)-4-{5-[3-(piperidin-4-ylmethoxy)-phenyl]-pyridin-3-yl}-[1,8]naphthyridine], in that order: 100 to 1000 nM and 1000 to 10000 nM.
In the same order, the values of `CN1CC[C@@H](n2cc(-c3cncc(-c4cc(-c5cc(Cl)ccc5F)nc5ncccc45)c3)cn2)C1` [compound 65, 2-(5-Chloro-2-fluoro-phenyl)-4-{5-[1-((R)-1-methyl-pyrrolidin-3-yl)-1H-pyrazol-4-yl]-pyridin-3-yl}-[1,8]naphthyridine] are below 100 nM and below 100 nM.
Turning to `Fc1ccc(Cl)cc1-c1cc(-c2cncc3ccccc23)c2cccnc2n1` [compound 2, 2-(5-Chloro-2-fluoro-phenyl)-4-isoquinolin-4-yl-[1,8]naphthyridine], the IC50 on GST-ALK5 lay within 100 to 1000 nM; in assay [1] it was 1000 to 10000 nM.
For `Fc1ccc(C(F)(F)F)cc1-c1cc(-c2cncc(-c3cnn(CCN4CCOCC4)c3)c2)c2cccnc2n1` [compound 34, 2-(2-Fluoro-5-trifluoromethyl-phenyl)-4-{5-[1-(2-morpholin-4-yl-ethyl)-1H-pyrazol-4-yl]-pyridin-3-yl}-[1,8]naphthyridine], in that order: below 100 nM and 100 to 1000 nM.
In the same order, the values of `CN1CCC(n2cc(-c3cncc(-c4cc(-c5cc(F)ccc5F)nc5ncccc45)n3)cn2)CC1` [compound 62, 2-(2,5-Difluoro-phenyl)-4-{6-[1-(1-methyl-piperidin-4-yl)-1H-pyrazol-4-yl]-pyrazin-2-yl}-[1,8]naphthyridine] are below 100 nM and below 100 nM.
For `NCCc1ccccc1-c1cncc(-c2cc(-c3cc(Cl)ccc3F)nc3ncccc23)c1` [compound 152, 2-(2-{5-[2-(5-Chloro-2-fluoro-phenyl)-[1,8]naphthyridin-4-yl]-pyridin-3-yl}-phenyl)-ethylamine], in that order: 1000 to 10000 nM and 1000 to 10000 nM.
On to `CN1CCN(c2ccc(-c3cncc(-c4cc(-c5cc(Cl)ccc5F)nc5ncccc45)c3)cc2)CC1` [compound 92, 2-(5-Chloro-2-fluoro-phenyl)-4-{5-[4-(4-methyl-piperazin-1-yl)-phenyl]-pyridin-3-yl}-[1,8]naphthyridine], for which the IC50 (on GST-ALK5; in assay [1]) was below 100 nM each time.
For the compound `Fc1ccc(F)c(-c2cc(-c3cncc(-c4cnn(CCN5CCCC5)c4)c3)c3cccnc3n2)c1` [compound 26, 2-(2,5-Difluoro-phenyl)-4-{5-[1-(2-pyrrolidin-1-yl-ethyl)-1H-pyrazol-4-yl]-pyridin-3-yl}-[1,8]naphthyridine], the IC50 (on GST-ALK5; in assay [1]) was below 100 nM throughout.
With `CN1CCN(c2ccc(-c3cnnc(-c4cc(-c5cc(Cl)ccc5F)nc5ncccc45)c3)cc2)CC1` [compound 130, 2-(5-Chloro-2-fluoro-phenyl)-4-{5-[4-(4-methyl-piperazin-1-yl)-phenyl]-pyridazin-3-yl}-[1,8]naphthyridine], the IC50 (at GST-ALK5; in assay [1]) was 1000 to 10000 nM throughout.
